Literature values, collected in patent US10813929B2, “Treating cancer with ATR inhibitors” (VERTEX PHARMACEUTICALS INCORPORATED, priority 2011, dated 2020).

System: pancreatic cancer
Conditions: treatment with gemcitabine, increased from 10%; cited from earlier work

SMILES: Nc1ccn([C@@H]2O[C@H](CO)[C@@H](O)C2(F)F)c(=O)n1 [gemcitabine]
- 5-year survival: 20%
